Data published in publication PMC8516952, “Two triterpenoids from Rubus fraxinifolius leaves and their tyrosinase and elastase inhibitory activities” (Scientific Reports, 2021).
pIC50: −log10 of the molar value. Values after ≈ are worked out from the molar mass of the structure shown.

Legend:
[1] = biological target: porcine pancreatic elastase (Sus scrofa, UniProt P00772)
mushroom tyrosinase = test: Tyrosinase inhibition assay (DOPA-chrome formation method); type: biochemical, Agaricus bisporus
Experimental: Tyrosinase inhibition was determined using the DOPA-chrome formation method as described previously with slight modifications. […] They were preincubated for 10 min at room temperature. Reactions were initiated by adding 4 μL aliquots of 10 mM L-DOPA to each well and incubating at 37 °C for 20 min. Tyrosinase activity was then determined by measuring absorbance at 475 nm. […] Experiments were performed in triplicate.

elastase = settings: cited from earlier work

Chain of porcine pancreatic elastase (P00772 27-266): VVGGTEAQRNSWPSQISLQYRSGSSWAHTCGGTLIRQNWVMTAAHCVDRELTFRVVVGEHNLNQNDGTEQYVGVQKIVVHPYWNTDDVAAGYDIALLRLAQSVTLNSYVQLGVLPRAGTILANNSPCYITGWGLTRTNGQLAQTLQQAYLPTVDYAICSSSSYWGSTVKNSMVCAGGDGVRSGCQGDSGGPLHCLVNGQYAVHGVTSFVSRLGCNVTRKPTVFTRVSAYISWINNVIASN

pIC50 [1]	Activity as tyrosinase inhibitors (in words) (mushroom tyrosinase)	IC50 tyrosinase inhibition (mushroom tyrosinase) [µg/mL]	SMILES	IC50 elastase inhibition (previous studies) (elastase) [µg/mL]
3.73	moderate activities	221.51 (≈ 419 µM)	C[C@@H]1CC[C@]2(C(=O)O)CCC3(C)C(=CCC4C3(C)CCC3C(C)(C)[C@H]5OCCCO[C@@H]5C[C@@]34C)C2[C@]1(C)O (stereo partly shown) [Compound 2, 2,3-O-Propanediol, 19-hydroxyurs-12-en-28-oic acid]	
			C[C@H]1[C@H](C)CC[C@]2(C(=O)O)CC[C@]3(C)C(=CC[C@@H]4[C@@]5(C)CC[C@H](O)C(C)(C)[C@@H]5CC[C@]43C)[C@H]12 [ursolic acid]	31.0 (≈ 67.9 µM)
3.65	moderate activities	207.79 (≈ 381 µM)	C[C@@H]1CC[C@]2(C(=O)O)CCC3(C)C(=CCC4C3(C)CCC3C(C)(C(=O)O)[C@H]5OCCO[C@@H]5C[C@@]34C)C2[C@]1(C)O (stereo partly shown) [Compound 1, 2,3-O-ethylene glycol, 19-hydroxyurs-12-en-23,28-dioic acid]	
